Data reported in article PMC8757871, “Bridging the Antimicrobial Activity of Two Lactoferricin Derivatives in E. coli and Lipid-Only Membranes” (Frontiers in Medical Technology, 2021).
Where two headings read alike, the source gives them in different places.

How the values were obtained:
E. coli K12 5K [1] = assay type: cell-based, Escherichia coli; settings: MIC = IC99.9, 2 h incubation with AMP in PBS at 37°C, then growth in LB about 20 h
Procedure: Colonies of E. coli K12 5K (courtesy of Günther Koraimann, University of Graz) were grown in LB-agar plates at 37°C. Overnight cultures (ONCs) were prepared by inoculating a single colony in 3 ml LB-medium in sterile polypropylene conical tubes (15 ml), enabling bacterial growth under aerobic conditions for 12−16 h in a shaking incubator at 37°C. Main cultures were prepared by suspending an aliquot of the ONCs in 10 ml LB-medium in sterile polypropylene conical tubes (50 ml) and harvested in the middle of the exponential growth phase. Bacteria were then immediately washed twice and re-suspended in nutrient-free and isotonic phosphate-buffered saline (PBS) solution (phosphate buffer 20 mM, NaCl 130 mM) at pH 7.4. Bacterial concentration was measured via turbidity measurements. The optical density at λ = 600 nm (OD600) was acquired with the spectrophotometer Thermo Spectronic Genesys 20 (Thermo Fisher Scientific, Waltham, MA), where OD600 = 1 corresponds approximately to 8 ×10^8 CFU/ml (where CFU is colony forming units).
The antimicrobial activity of the AMPs on E. coli was tested using a modified susceptibility microdilution assay ([30]) in the bacterial concentration range of 5 × 10^5 to 10^9 CFU/ml. Bacterial suspensions were incubated at a given AMP concentration for 2 h at 37°C (control samples were incubated in buffer only). Then, cell growth was monitored upon addition of double concentrated LB-medium for about 20 h using a Bioscreen C MBR (Oy Growth Curves Ab, Helsinki, Finland).
This allowed us to quantify the number density of surviving bacteria from the onset of the exponential growth via the relation Δtexp = a + blog(ncell), where a and b were obtained from a calibration curve in absence of AMPs (Supplementary Figure 1B). Then, the inhibited bacterial fraction IF=1-ncell([P])/ncell0 was calculated for different values of peptide concentration, [P], and of bacterial number density of the control sample, ncell0 . Following the so-called “equi-activity” analysis ([27], [31]), we further interpolated IF using a Gompertz function, which enabled us to derive inhibitory peptide concentrations ICx, where x is the corresponding inhibited bacterial fraction (Supplementary Figure 1C). By convention, the standard MIC is defined at inhibition levels of 99.9%, i.e., IC99.9 ≡ MIC. Additional control experiments were performed in order to test whether DMSO and acetic acid, used in buffer solutions of both peptides (see above), affect bacterial growth. In particular, the microdilution assays were repeated with LF11-215 dissolved in pure PBS, yielding equivalently delayed onsets of bacterial growth.

E. coli K12 5K [2] = assay: ζ-potential estimate of the maximum number of surface-adsorbed AMPs; assay type: cell-based, Escherichia coli; settings: for fraction of cell associated peptides that do not enter inner compartments: at bacteria inhibition levels of 10%; for NPmax/NB, ratio of surface-adsorbed to cell-partitioned AMPs (upper boundary): at the MIC
Procedure: DLS and ζ-potential measurements were carried out with a Zetasizer Nano ZSP (Malvern Panalytical, Malvern, UK). E. coli suspensions were incubated with a given AMP concentration at 37°C for 1 h prior to each measurement. […] Control samples (no AMPs) were suspended and incubated in buffer alone. […] Because of the high conductivity of PBS, the electrode voltage was set to 4 V for ζ-potential measurements to keep currents below 1 mA. Further, measurements were paused for 180 s between individual runs. This prevented Joule heating leading to sample denaturation and electrode blackening. Experiments were repeated three times on different preparations, each consisting of at least six measurements. Reported ζ-potential values are given by the median of the corresponding measurements (i.e., from at least 18 values) and errors were derived using the median absolute deviations.
Remembering that ζ-potential values are sensitive only to the charges exposed to the outside of any particle, including bacteria, we can obtain upper boundaries for the number of surface adsorbed peptides. Given the high abundance of lipopolysaccharides (LPS) in the outer leaflet (about 70–90 vol%) of Gram-negative bacteria, as compared to other charged lipid species such as PG and CL (<2 vol%) and membrane proteins (7–20 vol%) ([40]), it is justified to assume that LPS dominates the surface potential of E. coli. Then, following considerations put forth for peptides partitioning in liposomes ([31], [41]), the ratio of ζ-potential values in the presence and absence of AMPs is […]
(9) ζ/ζ0≈σ/σ0≃(S0/S)∑iNizi+NPzP/NLPS0zLPS, where (σ, σ0) and (S, S0) are the corresponding surface charge densities and cell surface areas, respectively. Further, NLPS0 is the initial number of LPS molecules in the outer leaflet, with a nominal charge zLPS ≃ −6 ([42]); NP is the number of surface adsorbed AMPs of nominal charge zP ≃ +5 ([20]); and ∑iNizi=NLPSzLPS+NPGzPG+NCLzCL considers anionic lipids that translocate into the outer leaflet due to AMP activity ([3], [6], [18]). This term also accounts for a possible loss of LPS molecules in the outer leaflet due to vesiculation processes ([25]). Note that Equation (9) is only valid for |ζ| ≤ 25 mV, in which range ζ ∝ σ ([43]). […] Rearranging Equation (9) leads to […]
(13) NPmax/NLPS0≈(zLPS/zP)(ζ/ζ0-1), where NPmax is the upper boundary of surface adsorbed peptides. […] For example, using DLS, we measured a hydrodynamic diameter of E. coli K12 2RH = 980 ± 30 nm, from which we calculate S0≃4.5×10^6 nm^2, approximating the bacteria's shape with a cylinder of radius r and length l using RH2≃r^2/2+l^2/12 and r ~ 400 nm ([47]). […]

Substance	MIC (E. coli K12 5K [1]; ncell = 10^6 CFU/ml) [µM]	MIC (E. coli K12 5K [1]; ncell = 10^9 CFU/ml) [µM]	fraction of cell associated peptides that do not enter inner compartments (E. coli K12 5K [2])	NPmax/NB, ratio of surface-adsorbed to cell-partitioned AMPs (upper boundary) (E. coli K12 5K [2])
H-PFFWRIRIRR-NH2 [LF11-324, H-PFFWRIRIRR-NH2]	11.1 ± 0.6	57 ± 2	~ 18%	~5%
H-FWRIRIRR-NH2 [LF11-215, H-FWRIRIRR-NH2]	13.7 ± 0.4	158 ± 2	~ 5%	about 1%
